Data: ChEMBL document CHEMBL3994622, “Design and synthesis of new RAF kinase-inhibiting antiproliferative quinoline derivatives. Part 2: Diarylurea derivatives” (Eur J Med Chem, 2017)

How the values were obtained:
Type in all cases: functional
SN12C = assay: Growth inhibition of human SN12C cells assessed as cell growth at 10 uM incubated for 48 hrs by sulforhodamine B assay relative to control; conditions: read-out: Activity
HOP-62 = assay: Growth inhibition of human HOP62 cells assessed as cell growth at 10 uM incubated for 48 hrs by sulforhodamine B assay relative to control; conditions: HOP-62, 48 h, read-out: Activity
NCI-H460 = assay: Growth inhibition of human NCI-H460 cells assessed as cell growth at 10 uM incubated for 48 hrs by sulforhodamine B assay relative to control; conditions: NCI-H460, 48 h, read-out: Activity
HT-29 = assay: Growth inhibition of human HT-29 cells assessed as cell growth at 10 uM incubated for 48 hrs by sulforhodamine B assay relative to control; conditions: HT-29, 48 h, read-out: Activity
IGROV-1 = assay: Growth inhibition of human IGROV1 cells assessed as cell growth at 10 uM incubated for 48 hrs by sulforhodamine B assay relative to control; conditions: IGROV-1, 48 h, read-out: Activity
ACHN = assay: Growth inhibition of human ACHN cells assessed as cell growth at 10 uM incubated for 48 hrs by sulforhodamine B assay relative to control; conditions: read-out: Activity
SK-MEL-28 = assay: Growth inhibition of human SK-MEL-28 cells assessed as cell growth at 10 uM incubated for 48 hrs by sulforhodamine B assay relative to control; conditions: SK-MEL-28, 48 h, read-out: Activity
UO-31 = assay: Growth inhibition of human UO31 cells assessed as cell growth at 10 uM incubated for 48 hrs by sulforhodamine B assay relative to control; conditions: UO-31, 48 h, read-out: Activity
OVCAR-4 = assay: Growth inhibition of human OVCAR4 cells assessed as cell growth at 10 uM incubated for 48 hrs by sulforhodamine B assay relative to control; conditions: OVCAR-4, 48 h, read-out: Activity
UACC-257 = assay: Growth inhibition of human UACC257 cells assessed as cell growth at 10 uM incubated for 48 hrs by sulforhodamine B assay relative to control; conditions: UACC-257, 48 h, read-out: Activity
CAKI-1 = assay: Growth inhibition of human Caki1 cells assessed as cell growth at 10 uM incubated for 48 hrs by sulforhodamine B assay relative to control; conditions: CAKI-1, 48 h, read-out: Activity
Malme-3M = assay: Growth inhibition of human MALME-3M cells assessed as cell growth at 10 uM incubated for 48 hrs by sulforhodamine B assay relative to control; conditions: read-out: Activity
BT-549 = assay: Growth inhibition of human BT549 cells assessed as cell growth at 10 uM incubated for 48 hrs by sulforhodamine B assay relative to control; conditions: BT-549, 48 h, read-out: Activity
NCI-H23 = assay: Growth inhibition of human NCI-H23 cells assessed as cell growth at 10 uM incubated for 48 hrs by sulforhodamine B assay relative to control; conditions: NCI-H23, 48 h, read-out: Activity
SF-539 = assay: Growth inhibition of human SF539 cells assessed as cell growth at 10 uM incubated for 48 hrs by sulforhodamine B assay relative to control; conditions: SF-539, 48 h, read-out: Activity
HL-60(TB) = assay: Growth inhibition of human HL-60(TB) cells assessed as cell growth at 10 uM incubated for 48 hrs by sulforhodamine B assay relative to control; conditions: HL-60, 48 h, read-out: Activity
SK-OV-3 = assay: Growth inhibition of human SKOV3 cells assessed as cell growth at 10 uM incubated for 48 hrs by sulforhodamine B assay relative to control; conditions: SK-OV-3, 48 h, read-out: Activity
K562 = assay: Growth inhibition of human K562 cells assessed as cell growth at 10 uM incubated for 48 hrs by sulforhodamine B assay relative to control; conditions: K562, 48 h, read-out: Activity
MCF7 = assay: Growth inhibition of human MCF7 cells assessed as cell growth at 10 uM incubated for 48 hrs by sulforhodamine B assay relative to control; conditions: MCF7, 48 h, read-out: Activity
OVCAR-5 = assay: Growth inhibition of human OVCAR5 cells assessed as cell growth at 10 uM incubated for 48 hrs by sulforhodamine B assay relative to control; conditions: OVCAR-5, 48 h, read-out: Activity
SK-MEL-5 = assay: Growth inhibition of human SK-MEL-5 cells assessed as cell growth at 10 uM incubated for 48 hrs by sulforhodamine B assay relative to control; conditions: SK-MEL-5, 48 h, read-out: Activity
MDA-MB-468 = assay: Growth inhibition of human MDA-MB-468 cells assessed as cell growth at 10 uM incubated for 48 hrs by sulforhodamine B assay relative to control; conditions: MDA-MB-468, 48 h, read-out: Activity
OVCAR-8 = assay: Growth inhibition of human OVCAR8 cells assessed as cell growth at 10 uM incubated for 48 hrs by sulforhodamine B assay relative to control; conditions: OVCAR-8, 48 h, read-out: Activity
SR = assay: Growth inhibition of human SR cells assessed as cell growth at 10 uM incubated for 48 hrs by sulforhodamine B assay relative to control; conditions: read-out: Activity
OVCAR-3 = assay: Growth inhibition of human OVCAR3 cells assessed as cell growth at 10 uM incubated for 48 hrs by sulforhodamine B assay relative to control; conditions: OVCAR-3, 48 h, read-out: Activity
HCC 2998 = assay: Growth inhibition of human HCC2998 cells assessed as cell growth at 10 uM incubated for 48 hrs by sulforhodamine B assay relative to control; conditions: HCC 2998, 48 h, read-out: Activity
PC-3 = assay: Growth inhibition of human PC3 cells assessed as cell growth at 10 uM incubated for 48 hrs by sulforhodamine B assay relative to control; conditions: PC-3, 48 h, read-out: Activity
NCI-H226 = assay: Growth inhibition of human NCI-H226 cells assessed as cell growth at 10 uM incubated for 48 hrs by sulforhodamine B assay relative to control; conditions: NCI-H226, 48 h, read-out: Activity
MDA-MB-435 = assay: Growth inhibition of human MDA-MB-435 cells assessed as cell growth at 10 uM incubated for 48 hrs by sulforhodamine B assay relative to control; conditions: MDA-MB-435, 48 h, read-out: Activity
NCI-H522 = assay: Growth inhibition of human NCI-H522 cells assessed as cell growth at 10 uM incubated for 48 hrs by sulforhodamine B assay relative to control; conditions: NCI-H522, 48 h, read-out: Activity
HCT-116 = assay: Growth inhibition of human HCT116 cells assessed as cell growth at 10 uM incubated for 48 hrs by sulforhodamine B assay relative to control; conditions: HCT-116, 48 h, read-out: Activity
Hs-578T = assay: Growth inhibition of human Hs 578T cells assessed as cell growth at 10 uM incubated for 48 hrs by sulforhodamine B assay relative to control; conditions: read-out: Activity
T47D = assay: Growth inhibition of human T47D cells assessed as cell growth at 10 uM incubated for 48 hrs by sulforhodamine B assay relative to control; conditions: read-out: Activity

SMILES	growth at 10 µM (SN12C) [%]	growth at 10 µM (HOP-62) [%]	growth at 10 µM (NCI-H460) [%]	growth at 10 µM (HT-29) [%]	growth at 10 µM (IGROV-1) [%]	growth at 10 µM (ACHN) [%]	growth at 10 µM (SK-MEL-28) [%]	growth at 10 µM (UO-31) [%]	growth at 10 µM (UACC-257) [%]	growth at 10 µM (CAKI-1) [%]	growth at 10 µM (Malme-3M) [%]	growth at 10 µM (BT-549) [%]	growth at 10 µM (NCI-H23) [%]	growth at 10 µM (SF-539) [%]	growth at 10 µM (SK-OV-3) [%]	growth at 10 µM (MCF7) [%]	growth at 10 µM (OVCAR-5) [%]	growth at 10 µM (SK-MEL-5) [%]	growth at 10 µM (OVCAR-8) [%]	growth at 10 µM (OVCAR-3) [%]	further results
COc1cc2cc(Sc3ccc(NC(=O)Nc4ccc(Cl)c(Cl)c4)cc3)c(C)nc2cc1OC	78.8	92.6	74.6	91.9	75.3	72.6	96.5	62.8	90	64.5	89.9	77.8	84.7	86	55	75.3	84.7	71	83.6	73	growth at 10 µM (OVCAR-4): 78.2%; growth at 10 µM (HL-60(TB)): 77.3%; growth at 10 µM (K562): 52.5%; growth at 10 µM (MDA-MB-468): 55.1%; growth at 10 µM (SR): 52.7%; growth at 10 µM (HCC 2998): 101%; growth at 10 µM (PC-3): 56.1%; growth at 10 µM (NCI-H226): 90.9%; growth at 10 µM (MDA-MB-435): 76.7%; growth at 10 µM (NCI-H522): 66%; growth at 10 µM (HCT-116): 67.9%; growth at 10 µM (Hs-578T): 85.6%
COc1cc2cc(Oc3ccc(NC(=O)Nc4ccccc4)cc3)c(C)nc2cc1OC	70.7	103	69	48.9	103	84.5	96.2	65.9	92.4	88.7	86.4	104	87.2	78	48.4	72.8	99.7	60.8	71.9	67.1	growth at 10 µM (OVCAR-4): 70.2%; growth at 10 µM (T47D): 97.1%; growth at 10 µM (HL-60(TB)): 70.5%; growth at 10 µM (K562): 42.8%; growth at 10 µM (MDA-MB-468): 35.3%; growth at 10 µM (SR): 42.6%; growth at 10 µM (HCC 2998): 105%; growth at 10 µM (PC-3): 60.4%; growth at 10 µM (NCI-H226): 39.8%; growth at 10 µM (MDA-MB-435): 89.4%; growth at 10 µM (NCI-H522): 67.2%; growth at 10 µM (HCT-116): 42.6%; growth at 10 µM (Hs-578T): 78%
COc1cc2cc(Oc3ccc(NC(=O)Nc4ccc(C(F)(F)F)cc4)cc3)c(C)nc2cc1OC	72.2	18.8	42.8	44.6	71.9	56.1	58.4	87.6	66.5	70.4	82.9	113	79.3	96.9	38.8	84.3	92.9	47.4	37.8	67	growth at 10 µM (OVCAR-4): 49%; growth at 10 µM (T47D): 57.5%; growth at 10 µM (HL-60(TB)): 75.2%; growth at 10 µM (K562): 57.1%; growth at 10 µM (MDA-MB-468): 40.1%; growth at 10 µM (SR): 59.6%; growth at 10 µM (HCC 2998): 94.8%; growth at 10 µM (PC-3): 48.3%; growth at 10 µM (NCI-H226): 20.9%; growth at 10 µM (MDA-MB-435): 80.3%; growth at 10 µM (NCI-H522): 63.2%; growth at 10 µM (HCT-116): 47.2%; growth at 10 µM (Hs-578T): 70.9%
COc1cc2cc(Oc3ccc(NC(=O)Nc4cc(C(F)(F)F)cc(C(F)(F)F)c4)cc3)c(C)nc2cc1OC	7.69	-54.1	7	4.89	19.9	5.82	7.66	11.6	-4.68	6.4	-3.13	1.44	2.28	-41	-1.05	0.59	14.6	-58.5	14.2	1.71	growth at 10 µM (OVCAR-4): 27.9%; growth at 10 µM (T47D): 7.52%; growth at 10 µM (MDA-MB-468): -8.12%; growth at 10 µM (HCC 2998): 21.3%; growth at 10 µM (PC-3): 6.82%; growth at 10 µM (NCI-H226): -10.2%; growth at 10 µM (MDA-MB-435): -2.55%; growth at 10 µM (NCI-H522): -33.4%; growth at 10 µM (HCT-116): 3.73%; growth at 10 µM (Hs-578T): -10.7%
COc1cc2cc(Oc3ccc(NC(=O)Nc4ccc(C)cc4)cc3)c(C)nc2cc1OC	93	66.9	108	115	101	103	109	89.2	112	98.2	94.6	130	95.5	108	87.8	94.5	110	100	87.4	113	growth at 10 µM (T47D): 101%; growth at 10 µM (HL-60(TB)): 93%; growth at 10 µM (K562): 90.8%; growth at 10 µM (MDA-MB-468): 97.1%; growth at 10 µM (SR): 83.1%; growth at 10 µM (HCC 2998): 104%; growth at 10 µM (PC-3): 94.5%; growth at 10 µM (NCI-H226): 102%; growth at 10 µM (MDA-MB-435): 107%; growth at 10 µM (NCI-H522): 69.9%; growth at 10 µM (HCT-116): 107%; growth at 10 µM (Hs-578T): 76.5%
Cc1nc2cc(O)c(O)cc2cc1Oc1ccc(NC(=O)Nc2ccc(Cl)c(Cl)c2)cc1	85.7	35.7	62.1	48	67.1	39	79.1	58.6	88.5	27.3	85.2	82.2	62.8	56.9	45	76.2	122	-42.2	47.7	67.9	growth at 10 µM (OVCAR-4): 67.7%; growth at 10 µM (T47D): 62.2%; growth at 10 µM (HL-60(TB)): 96.8%; growth at 10 µM (K562): 53.9%; growth at 10 µM (SR): 8.92%; growth at 10 µM (HCC 2998): 93.4%; growth at 10 µM (PC-3): 39.3%; growth at 10 µM (NCI-H226): 38.3%; growth at 10 µM (MDA-MB-435): 54.2%; growth at 10 µM (NCI-H522): 1.87%; growth at 10 µM (HCT-116): 44.6%; growth at 10 µM (Hs-578T): 105%
